# Reference: patent publication US12384808B2, “Modulators of TNF-α activity” (Forward Therapeutics, Inc., priority 2022, dated 2025)
# Molecular target: TNFα (Homo sapiens, UniProt P01375)
# Assay: TNFα Induced HEK Blue Cellular Assay
# Type: cell-based
# Conditions: HEK Blue TNFα reporter cells, TNFα 100 pg/ml, 24 hrs at 37° C., secreted alkaline phosphatase (QUANTI-Blue) read at 620 nm; read-out: IC50 value
# Procedure: TNFα Induced HEK Blue Cellular Assay
# Test articles were diluted in DMSO and serially diluted into 384 well assay plate (Corning 3765), at final concentrations ranging from […] to 0.5 nM. HEK Blue™ TNFα reporter cells were added at a final density of 10,000 cell per well in assay media [DMEM (Gibco, cat #21063-029), 10% fetal bovine serum (ExcelBio, cat #FND500), 1% Penicillin-Streptomycin (Solarbio, cat #P1400-100]. TNFα (R&D 210-TA-020/CF) was then added to the assay plate at a final concentration of 100 pg/ml. This plate was then incubated for 24 hrs at 37° C. and 5% CO2. Secreted alkaline phosphatase expression was then measured using QUANTI-Blue™ (Invivogen), according to manufacturer instructions and read on an Envision microplate reader at 620 nm.
# Inhibition data for test compound over a range of concentration was plotted as percentage inhibition of the test compound (100%=maximum inhibition). IC50 values were determined after correcting for background [(sample read−mean of low control)/(mean of high control−mean of low control)] where by the low control is DMSO without stimulation and high control is DMSO with stimulation. The IC50 is defined as the concentration of test compound which produces 50% inhibition and was quantified using the 4 parameter logistic equation to fit the data.
# TNFα, sequence (P01375 77-233 limits assumed): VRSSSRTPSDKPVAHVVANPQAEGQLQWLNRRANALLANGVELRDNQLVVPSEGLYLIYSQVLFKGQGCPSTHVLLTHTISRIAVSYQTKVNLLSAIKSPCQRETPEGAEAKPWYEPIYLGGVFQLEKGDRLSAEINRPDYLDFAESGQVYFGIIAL
row,SMILES,IC50 [µM]
1,"[2H]C([2H])([2H])N1C(=O)c2cccc(OC(F)F)c2[C@H]2C[C@@H]1c1nc3ccc(-c4cc(F)c(P(C)(C)=O)cc4OC)cc3n12 [Example 130, (7R,14R)-1-(difluoromethoxy)-11-(4-(dimethylphosphoryl)-5-fluoro-2-methoxyphenyl)-6-(methyl-d3)-6,7-dihydro-7,14-methanobenzo[f]benzo[4,5]imidazo[1,2-a][1,4]diazocin-5(14H)-one]",< 0.1
2,"CCN1C(=O)c2cccc(OC(F)F)c2[C@H]2C[C@@H]1c1nc3ccc(-c4ccc(P(C)(C)=O)cc4)cc3n12 [Example 49, (1R,11R)-18-(difluoromethoxy)-5-[4-(dimethylphosphoryl)phenyl]-12-ethyl-2,9,12-triazapentacyclo[9.8.1.0^{2,10}.0^{3,8}.0^{14,19}]icosa-3(8),4,6,9,14(19),15,17-heptaen-13-one]",< 0.1
3,"[2H]C([2H])([2H])N1C(=O)c2cccc(OC(F)F)c2[C@H]2C[C@@H]1c1nc3ccc(-c4cc(F)c(CP(C)(C)=O)cc4C)cc3n12 [Example 108, (7R,14R)-1-(difluoromethoxy)-11-(4-((dimethylphosphoryl)methyl)-5-fluoro-2-methylphenyl)-6-(methyl-d3)-6,7-dihydro-7,14-methanobenzo[f]benzo[4,5]imidazo[1,2-a][1,4]diazocin-5(14H)-one]",< 0.1
4,"CN1C(=O)c2cccc(OC(F)F)c2[C@H]2C[C@@H]1c1nc3ccc(-c4cnn(CP(C)(C)=O)c4)cc3n12 [Example 21, (1R,11R)-18-(difluoromethoxy)-5-{1-[(dimethylphosphoryl)methyl]pyrazol-4-yl}-12-methyl-2,9,12-triazapentacyclo[9.8.1.0^{2,10}.0^{3,8}.0^{14,19}]icosa-3(8),4,6,9,14(19),15,17-heptaen-13-one]",0.1 to 1
5,"[2H]C([2H])([2H])N1C(=O)c2cccc(OC(F)F)c2[C@H]2C[C@@H]1c1nc3ccc(-c4cc(C)c(P(C)(C)=O)c(F)c4)cc3n12 [Example 106, (7R,14R)-1-(difluoromethoxy)-11-(4-(dimethylphosphoryl)-3-fluoro-5-methylphenyl)-6-(methyl-d3)-6,7-dihydro-7,14-methanobenzo[f]benzo[4,5]imidazo[1,2-a][1,4]diazocin-5(14H)-one]",< 0.1
6,"[2H]C([2H])([2H])N1C(=O)c2cccc(OC(F)F)c2[C@H]2C[C@@H]1c1nc3ccc(-c4ccc(CP(C)(C)=O)c(F)c4)cc3n12 [Example 68, (7R,14R)-1-(difluoromethoxy)-11-(4-((dimethylphosphoryl)methyl)-3-fluorophenyl)-6-(methyl-d3)-6,7-dihydro-7,14-methanobenzo[f]benzo[4,5]imidazo[1,2-a][1,4]diazocin-5(14H)-one]",< 0.1
7,"CN1C(=O)c2cccc(OC(F)F)c2[C@H]2C[C@@H]1c1nc3ccc(-c4ccc(NP(C)(C)=O)cc4)cc3n12 [Example 50, (1R,11R)-18-(difluoromethoxy)-5-{4-[(dimethylphosphoryl)amino]phenyl}-12-methyl-2,9,12-triazapentacyclo[9.8.1.0^{2,10}.0^{3,8}.0^{14,19}]icosa-3(8),4,6,9,14(19),15,17-heptaen-13-one]",< 0.1
8,"CP(C)(=O)Cc1ccc(-c2ccc3nc4n(c3c2)[C@@H]2C[C@H]4NC(=O)c3cccc(OC(F)F)c32)c(F)c1 [Example 96, (7R,14R)-1-(difluoromethoxy)-11-(4-((dimethylphosphoryl)methyl)-2-fluorophenyl)-6,7-dihydro-7,14-methanobenzo[f]benzo[4,5]imidazo[1,2-a][1,4]diazocin-5(14H)-one]",0.1 to 1
9,"[2H]C([2H])([2H])N1C(=O)c2cccc(OC(F)F)c2[C@H]2C[C@@H]1c1nc3ccc(-c4ccc(C(O)P(C)(C)=O)cc4)cc3n12 (stereo partly drawn) [Example 84, (7R,14R)-1-(difluoromethoxy)-11-(4-((dimethylphosphoryl)(hydroxy)methyl)phenyl)-6-(methyl-d3)-6,7-dihydro-7,14-methanobenzo[f]benzo[4,5]imidazo[1,2-a][1,4]diazocin-5(14H)-one]",< 0.1
10,"CN1C(=O)c2cccc(OC(F)F)c2[C@H]2C[C@@H]1c1nc3ccc(-c4ccc(P5(=O)CCOCC5)nc4)cc3n12 [Example 6, (1R,11R)-18-(difluoromethoxy)-12-methyl-5-[6-(4-oxo-1,4lambda5-oxaphosphinan-4-yl)pyridin-3-yl]-2,9,12-triazapentacyclo[9.8.1.0^{2,10}.0^{3,8}.0^{14,19}]icosa-3(8),4,6,9,14(19),15,17-heptaen-13-one]",< 0.1
11,"CN1C(=O)c2cccc(OC(F)F)c2[C@H]2C[C@@H]1c1nc3ccc(-c4ccc(OCCCP(C)(C)=O)nc4)cc3n12 [Example 40, (1R,11R)-18-(difluoromethoxy)-5-{6-[3-(dimethylphosphoryl)propoxy]pyridin-3-yl}-12-methyl-2,9,12-triazapentacyclo[9.8.1.0^{2,10}.0^{3,8}.0^{14,19}]icosa-3(8),4,6,9,14(19),15,17-heptaen-13-one]",0.1 to 1
12,"[2H]C([2H])([2H])N1C(=O)c2cccc(OC(F)F)c2[C@H]2C[C@@H]1c1nc3ccc(-c4ccc(P(C)(C)=O)c(F)n4)cc3n12 [Example 115, (7R,14R)-1-(difluoromethoxy)-11-(5-(dimethylphosphoryl)-6-fluoropyridin-2-yl)-6-(methyl-d3)-6,7-dihydro-7,14-methanobenzo[f]benzo[4,5]imidazo[1,2-a][1,4]diazocin-5(14H)-one]",< 0.1
13,"CCN1C(=O)c2cccc(OC(F)F)c2[C@H]2C[C@@H]1c1nc3ccc(-c4ccc(OCP(C)(C)=O)cc4)cc3n12 [Example 44, (1R,11R)-18-(difluoromethoxy)-5-{4-[(dimethylphosphoryl)methoxy]phenyl}-12-ethyl-2,9,12-triazapentacyclo[9.8.1.0^{2,10}.0^{3,8}.0^{14,19}]icosa-3(8),4,6,9,14(19),15,17-heptaen-13-one]",< 0.1
14,"CCP(=O)(CC)c1ccc(-c2ccc3nc4n(c3c2)[C@@H]2C[C@H]4NC(=O)c3cccc(OC(F)F)c32)cn1 [Example 137, (7R,14R)-11-(6-(diethylphosphoryl)pyridin-3-yl)-1-(difluoromethoxy)-6,7-dihydro-7,14-methanobenzo[f]benzo[4,5]imidazo[1,2-a][1,4]diazocin-5(14H)-one]",< 0.1
15,"CN1C(=O)c2cccc(OC(F)F)c2[C@H]2C[C@@H]1c1nc3ccc(-c4ccc(OCP(C)(C)=O)nc4)cc3n12 [Example 7, (1R,11R)-18-(difluoromethoxy)-5-{6-[(dimethylphosphoryl)methoxy]pyridin-3-yl}-12-methyl-2,9,12-triazapentacyclo[9.8.1.0^{2,10}.0^{3,8}.0^{14,19}]icosa-3(8),4,6,9,14(19),15,17-heptaen-13-one]",< 0.1
16,"CN1C(=O)c2cccc(OC(F)F)c2[C@H]2C[C@@H]1c1nc3ccc(-c4c(F)cc(P(C)(C)=O)cc4F)cc3n12 [Example 62, (1R,11R)-18-(difluoromethoxy)-5-[4-(dimethylphosphoryl)-2,6-difluorophenyl]-12-methyl-2,9,12-triazapentacyclo[9.8.1.0^{2,10}.0^{3,8}.0^{14,19}]icosa-3(8),4,6,9,14(19),15,17-heptaen-13-one]",< 0.1
17,"[2H]C([2H])([2H])N1C(=O)c2cccc(OC(F)F)c2[C@H]2C[C@@H]1c1nc3ccc(-c4ccc(C(C)P(C)(C)=O)c(F)c4)cc3n12 (single isomer, unassigned) [Example 99, (7R,14R)-1-(difluoromethoxy)-11-(4-((S or R)-1-(dimethylphosphoryl)ethyl)-3-fluorophenyl)-6-(methyl-d3)-6,7-dihydro-7,14-methanobenzo[f]benzo[4,5]imidazo[1,2-a][1,4]diazocin-5(14H)-one]",< 0.1
18,"[2H]C([2H])([2H])N1C(=O)c2cccc(OC(F)F)c2[C@H]2C[C@@H]1c1nc3ccc(-c4cc(F)c(P(C)(C)=O)cc4F)cc3n12 [Example 54, (7R,14R)-1-(difluoromethoxy)-11-(4-(dimethylphosphoryl)-2,5-difluorophenyl)-6-(methyl-d3)-6,7-dihydro-7,14-methanobenzo[f]benzo[4,5]imidazo[1,2-a][1,4]diazocin-5(14H)-one]",< 0.1
19,"[2H]C([2H])([2H])N1C(=O)c2cccc(OC(F)F)c2[C@H]2C[C@@H]1c1nc3ccc(-c4ccc(P(C)(C)=O)c(F)c4C)cc3n12 [Example 90, (7R,14R)-1-(difluoromethoxy)-11-(4-(dimethylphosphoryl)-3-fluoro-2-methylphenyl)-6-(methyl-d3)-6,7-dihydro-7,14-methanobenzo[f]benzo[4,5]imidazo[1,2-a][1,4]diazocin-5(14H)-one]",< 0.1
20,"Cc1cc(P(C)(C)=O)ccc1-c1ccc2nc3n(c2c1)[C@@H]1C[C@H]3N(C)C(=O)c2cccc(OC(F)F)c21 [Example 29, (1R,11R)-18-(difluoromethoxy)-5-[4-(dimethylphosphoryl)-2-methylphenyl]-12-methyl-2,9,12-triazapentacyclo[9.8.1.0^{2,10}.0^{3,8}.0^{14,19}]icosa-3(8),4,6,9,14(19),15,17-heptaen-13-one]",< 0.1
